pIC50: −log10 of the molar value. Structures can show the parent of a compound that is named as a salt. Where two headings read alike, the source gives them in different places. Where a SMILES comes first, the peptide text is derived from it. [ ]: non-standard residue; d: D form. The star is where a group is joined. Tos = Cc1ccc(S(=O)(=O)*)cc1
Key:
[1] = target: T1, thrombin (Homo sapiens, UniProt P00734); assay: Thrombin-inhibiting activity, synthetic substrate PS-915; format: biochemical; conditions: PS-915, pH 8.5, 37° C.
T1 construct: purchased Sankyo (Color Test ATIII kit)
Text: (§1) Synthetic substrates used for testing the inhibitory activity of the inhibitors on decomposition of substrates by the enzymes were as follows. For plasmin, PS-994 (H--D--Lys(Tos)--Phe--Lys--CHA·2HCl, mfd. by NITTO BOSEKI Co., Ltd.) was used; for thrombin and trypsin, PS-915 (H--D--Phe--Pro--Arg--CHA·2HCl, mfd. by NITTO BOSEKI Co., Ltd.); for Factor Xa, PS-2000 (Z--D--Lys--(HCO)--Gly--Arg--CHA·HCl, mfd. by NITTO BOSEKI Co., Ltd.); and for kallikrein, S-2302 (H--D--Pro--Phe--Arg--pNA, mfd., by Kabi Co., Ltd.).
(§2) As plasmin, standard plasmin of Sankyo Color Test α2 -D1 Kit was used in an amount of 0.3CU/ml. As thrombin, that of Sankyo Color Test ATIII kit was used in an amount of 1.2 NIHU/ml. As trypsin, that of cord 3703 of Worthington was used in an amount of 2 μg/ml. As human Factor Xa, that of Boehringer Manheim Co., Ltd. was used in an amount of 0.25 U/ml. As human plasma kallikrein, that of Kabi Co., Ltd. was used in an amount of 0.12 U/ml. As terminating color reagents, those for Sankyo Color Test Kit were used. The reactions were carried out at 37° C. unless otherwise specified.
Each of aqueous solutions (0.1 ml) of the inhibitors which solutions were various in their respective concentrations was added to 0.4 ml of a buffer solution (a 150 mM aqueous sodium chloride solution containing 150 mM Tris, pH 8.5), and the resulting solution was heated for 5 minutes. To this solution was added 0.2 ml of thrombin solution, followed by incubation for 5 minutes. Then, 0.1 ml of a PS-915 solution (10 mM) was added, followed by incubation for 5 minutes. Thereafter, 2 ml of terminating color reagent was added. After standing for 10 minutes, absorbance at 700 nm was measured, and IC50 was determined in the manner described above.

[2] = target: T2, human plasma kallikrein (Homo sapiens, UniProt P03952); assay: Kallikrein-inhibiting activity, synthetic substrate S-2302; format: biochemical; conditions: S-2302, pH 8.0, 37° C.
T2 construct: purchased Kabi Co., Ltd
Text: as §1, §2
Each of aqueous solutions (0.1 ml) of the inhibitors which solutions were various in their respective concentrations was added to 0.4 ml of a buffer solution (a 150 mM aqueous sodium chloride solution containing 50 mM Tris, pH 8.0), and the resulting mixture was heated for 5 minutes. Then, 0.1 ml of a kallikrein solution [containing 0.5% bovine serum albumin (No. A8022 available from Sigma Chemical Co.)] was added, followed by incubation for 5 minutes. Subsequently, a 10 mM S-2302 aqueous solution (0.1 ml) was added. The reaction was terminated by addition of a 20% aqueous acetic acid solution. Absorbance at 405 nm was measured and IC50 was measured in the manner described above.

[3] = target: T3, plasmin (Homo sapiens, UniProt P00747); assay: Inhibitory activity on fibrin decomposition by plasmin (natural substrate); format: biochemical; set-up: Standard human serum (0.1 ml); from tissue; conditions: concentration doubling time for complete dissolution, 25° C.
Protocol: The determination was carried out by the method of Okamoto et al. (see Keio Journal of Medicine, vol. 11, p. 105 (1962).
Standard human serum (0.1 ml), 0.4 ml of each of 1/20 M potassium phosphate sodium physiological salt buffer solutions (pH 7.4) containing various concentrations of each inhibitor, and 0.1 ml of a solution of streptokinase in physiological saline (1000 U/ml) were stirred and then cooled at 0° C. for 10 minutes. Thereto was added 0.05 ml of a solution of thrombin in physiological saline (100 NIHU/ml, mfd. by Parke Davis Co. Ltd.) at 0° C. After standing for 1 minute, 0.3 ml of a 0.33% solution of bovine fibrinogen (F-4753, available from Sigma Chemical Co.) in physiological saline was added, and the resulting mixture was allowed to stand at 25° C. The solubility was measured every minute by the standard of judgement of Nakamura (see Allergy, vol. 5, p. 1 (1956)) and the time required for complete dissolution was determined. A concentration of the inhibitor at which said time is twice that required in the absence of the inhibitor was determined as IC50.
Target sequence in this assay (P00747 581-810 limits assumed): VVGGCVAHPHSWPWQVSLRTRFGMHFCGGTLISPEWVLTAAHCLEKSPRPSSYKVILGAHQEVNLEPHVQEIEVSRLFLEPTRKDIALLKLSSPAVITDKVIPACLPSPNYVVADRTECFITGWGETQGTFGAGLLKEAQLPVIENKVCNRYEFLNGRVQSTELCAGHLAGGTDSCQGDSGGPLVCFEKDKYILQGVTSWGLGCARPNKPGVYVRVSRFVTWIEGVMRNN
Target sequence in this assay (P00747 97-580 partner limits assumed): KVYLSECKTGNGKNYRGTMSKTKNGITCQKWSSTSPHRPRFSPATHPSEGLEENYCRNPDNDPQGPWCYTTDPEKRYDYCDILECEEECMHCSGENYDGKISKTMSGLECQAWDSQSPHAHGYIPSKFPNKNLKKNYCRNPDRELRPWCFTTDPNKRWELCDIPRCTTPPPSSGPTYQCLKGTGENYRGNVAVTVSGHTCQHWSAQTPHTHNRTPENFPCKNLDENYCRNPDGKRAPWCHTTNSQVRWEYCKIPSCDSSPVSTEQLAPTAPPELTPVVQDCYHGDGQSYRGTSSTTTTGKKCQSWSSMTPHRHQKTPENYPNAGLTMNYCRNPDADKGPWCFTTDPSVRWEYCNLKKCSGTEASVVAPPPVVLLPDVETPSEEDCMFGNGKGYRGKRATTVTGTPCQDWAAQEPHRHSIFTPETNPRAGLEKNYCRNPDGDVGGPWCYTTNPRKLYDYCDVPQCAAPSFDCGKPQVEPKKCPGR

[4] = target: T4, human Factor Xa (Homo sapiens, UniProt P00742); assay: Factor Xa-inhibiting activity, synthetic substrate PS-2000; format: biochemical; conditions: PS-2000, pH 8.5, 37° C.
T4 construct: purchased Boehringer Manheim Co., Ltd
Text: as §1, §2
Each of aqueous solutions (1 ml) of the inhibitors which solutions were various in their respective concentrations was added to 0.3 ml of a buffer solution (a 150 mM aqueous sodium chloride solution containing 50 mM Tris, pH 8.5 ), and the resulting solution was heated for 5 minutes. Then, 0.1 ml of a Factor Xa solution (a 150 mM aqueous sodium chloride solution containing 50 mM Tris and 20 mM calcium chloride, pH 8.5) was added, followed by incubation for 5 minutes. Subsequently, a 5% polyvinyl pyrrobidone solution (0.1 ml) containing 10 mM PS-2000 was added, followed by incubation for 5 min. Thereafter, 2 ml of terminating color reagent was added. After standing for 10 minutes, absorbance at 700 nm was measured and IC50 was determined in the manner described above.

[5] = target: T5, trypsin (Bos taurus, UniProt P00760); assay: Trypsin-inhibiting activity, synthetic substrate PS-915; format: biochemical; conditions: PS-915, pH 8.0, 37° C.
T5 construct: purchased Worthington 3703
T5 sequence (P00760 24-246): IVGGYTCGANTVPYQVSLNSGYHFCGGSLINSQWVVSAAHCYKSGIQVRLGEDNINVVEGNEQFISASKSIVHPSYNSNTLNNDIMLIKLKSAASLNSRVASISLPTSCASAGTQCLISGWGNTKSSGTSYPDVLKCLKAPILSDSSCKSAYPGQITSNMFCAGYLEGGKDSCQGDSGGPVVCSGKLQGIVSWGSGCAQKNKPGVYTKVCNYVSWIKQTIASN
Text: as §1, §2
Each of aqueous solutions (0.1 ml) of the inhibitors which solutions were various in their respective concentrations was added to 0.5 ml of a buffer solution (a 150 mM aqueous sodium chloride solution containing 150 mM Tris, pH 8.0), and the resulting solution was heated for 5 minutes. Then, 0.1 ml of a trypsin solution was added, followed by incubation for 5 minutes. Subsequently, 0.1 ml of a PS-915 solution (10 mM) was added, followed by incubation for 5 minutes. Thereafter, 2 ml of terminating color reagent [containing […] of soybean trypsin inhibitor (No. T-9003, available from Sigma Chemical Co.)] was added. After standing for 10 minutes, absorbance at 700 nm was measured and IC50 was determined in the manner described above.

[6] = target: T3, plasmin; assay: Plasmin-inhibiting activity, synthetic substrate PS-994; format: biochemical; set-up: purchased Sankyo (Color Test α2 -D1 Kit); conditions: PS-994, pH 7.8, 37° C.
Text: as §1, §2
Target sequence in this assay (P00747 581-810 limits assumed, species assumed): as the sequence (P00747 581-810 limits assumed) above
Target sequence in this assay (P00747 97-580 partner limits assumed, species assumed): as the sequence (P00747 97-580 partner limits assumed) above
Each of aqueous solutions (0.1 ml) of the inhibitors which solutions were various in their respective concentrations was added to 0.4 ml of a buffer solution (a 150 mM aqueous sodium chloride solution containing 100 mM Tris, pH 7.8), and the resulting solution was heated for 5 minutes. To this solution was added 0.2 ml of plasmin solution, followed by incubation for 5 minutes, and then 0.1 ml of a PS-994 solution (10 mM) was added, and then incubated for 5 minutes. After completion of the reaction, 2.0 ml of terminating color reagent was added, and after standing for 10 minutes, absorbance at 700 nm was measured. A concentration of the inhibitor in the reaction system at which the absorbance was one-half that obtained in the absence of the inhibitor was determined as IC50.

[7] = target: T3, plasmin; set-up: purchased Sankyo (Color Test α2 -D1 Kit); conditions: background, related art; cited from earlier work
Target sequence in this assay (P00747 581-810 limits assumed, species assumed): as the sequence (P00747 581-810 limits assumed) above
Target sequence in this assay (P00747 97-580 partner limits assumed, species assumed): as the sequence (P00747 97-580 partner limits assumed) above

[8] = target: T3, plasmin; set-up: purchased Sankyo (Color Test α2 -D1 Kit); conditions: cited from earlier work
Target sequence in this assay (P00747 581-810 limits assumed, species assumed): as the sequence (P00747 581-810 limits assumed) above
Target sequence in this assay (P00747 97-580 partner limits assumed, species assumed): as the sequence (P00747 97-580 partner limits assumed) above

[9] = target: T3, plasmin; set-up: purchased Sankyo (Color Test α2 -D1 Kit); conditions: cited from earlier work; remark: listed apart in the source
Target sequence in this assay (P00747 581-810 limits assumed, species assumed): as the sequence (P00747 581-810 limits assumed) above
Target sequence in this assay (P00747 97-580 partner limits assumed, species assumed): as the sequence (P00747 97-580 partner limits assumed) above

[10] = tested on: thrombin and trypsin; conditions: background, related art; cited from earlier work

T4 sequence (P00742 235-488 limits assumed): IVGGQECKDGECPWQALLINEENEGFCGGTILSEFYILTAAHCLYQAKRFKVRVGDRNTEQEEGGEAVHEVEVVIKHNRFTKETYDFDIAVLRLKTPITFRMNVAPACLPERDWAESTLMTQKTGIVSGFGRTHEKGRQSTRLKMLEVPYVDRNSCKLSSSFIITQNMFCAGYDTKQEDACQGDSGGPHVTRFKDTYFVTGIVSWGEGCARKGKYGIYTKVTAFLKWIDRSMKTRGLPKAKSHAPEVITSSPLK
T4 sequence (P00742 41-179 partner limits assumed): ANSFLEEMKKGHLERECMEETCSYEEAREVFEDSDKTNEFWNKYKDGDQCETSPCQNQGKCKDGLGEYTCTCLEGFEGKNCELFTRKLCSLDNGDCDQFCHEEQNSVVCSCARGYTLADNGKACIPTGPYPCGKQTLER
T2 sequence (P03952 391-638 limits assumed): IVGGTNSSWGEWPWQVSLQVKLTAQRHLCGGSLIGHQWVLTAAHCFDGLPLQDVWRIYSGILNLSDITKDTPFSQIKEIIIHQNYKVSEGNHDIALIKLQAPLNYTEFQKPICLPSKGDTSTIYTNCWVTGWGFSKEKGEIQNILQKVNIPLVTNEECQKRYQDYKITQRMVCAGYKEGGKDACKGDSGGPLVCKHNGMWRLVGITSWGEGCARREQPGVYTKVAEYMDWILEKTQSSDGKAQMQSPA
T2 sequence (P03952 20-390 partner limits assumed): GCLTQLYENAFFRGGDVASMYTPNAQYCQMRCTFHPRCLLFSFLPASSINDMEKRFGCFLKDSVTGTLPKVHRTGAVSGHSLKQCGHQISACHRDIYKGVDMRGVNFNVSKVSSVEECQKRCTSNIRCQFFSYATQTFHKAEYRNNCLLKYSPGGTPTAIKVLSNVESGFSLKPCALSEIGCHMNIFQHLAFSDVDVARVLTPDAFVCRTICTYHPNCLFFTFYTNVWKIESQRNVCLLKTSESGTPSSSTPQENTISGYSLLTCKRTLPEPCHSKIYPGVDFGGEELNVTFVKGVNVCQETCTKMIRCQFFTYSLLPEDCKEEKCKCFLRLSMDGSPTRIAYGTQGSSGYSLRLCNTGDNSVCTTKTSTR

Compound	pIC50 ([1]; Table 4)	pIC50 ([2]; Table 4)	pIC50 ([3]; Table 4)	pIC50 ([4]; Table 4)	pIC50 ([5]; Table 4)	pIC50 ([6]; Table 4)	antiplasmin activity [7]	inhibition of proteases other than plasmin, for example, thrombin and trypsin [10]	further results
Cc1ccc(S(=O)(=O)NCCCC[C@@H](NC(=O)OCC(C)C)C(=O)N[C@@H](Cc2ccccc2)C(=O)N[C@H](C=O)CCCCN)cc1 [Compound 1, N-α-Isobutoxycarbonyl-N-ε-(p-tosyl)-D-lysyl-L-phenylalanyl-L-lysinal hydrochloride]	< 3.00	6.74	6.64	5.09	5.55	7.47			
CC(=O)N[C@@H](CC(C)C)C(=O)N[C@@H](CC(C)C)C(=O)N[C@H](C=O)CCCCN [acetyl-L-leucyl-L-leucyl-lysinal] (Ac-Leu-Leu-Lys-aldehyde)							has antiplasmin activity		
NCCCCCC(=O)O [ε-Aminocaproic acid]									ability to inhibit decomposition of other substrates by plasmin, e.g. fibrinogen ([8]; background, related art): substantially no ability to inhibit; inhibition of fibrinolysis by plasmin ([9]; background, related art): inhibit only fibrinolysis by plasmin
Cc1ccc(S(=O)(=O)NCCCC[C@@H](NC(=O)OCC(C)C)C(=O)N[C@@H](Cc2ccccc2)C(=O)N[C@@H](CCCCN)C(=O)CCl)cc1 [Compound 13, N-α-Isobutoxycarbonyl-N-ε-(p-tosyl)-D-lysyl-L-phenylalanyl-L-lysine chloromethyl ketone hydrochloride]	5.60	6.96	6.36	5.54	6.17	7.51			
CN(C)C(=O)COC(=O)Cc1ccc(OC(=O)c2ccc(NC(=N)N)cc2)cc1 [Camostat]							have antiplamin activity	strongly inhibit	
N=C(N)Nc1ccc(C(=O)Oc2ccc3cc(C(=N)N)ccc3c2)cc1 [Nafamstat]							have antiplamin activity	strongly inhibit	
NC[C@H]1CC[C@H](C(=O)O)CC1 [t-AMCHA, trans-aminoethylcyclohexanecarboxylic acid]									ability to inhibit decomposition of other substrates by plasmin, e.g. fibrinogen [8]: substantially no ability to inhibit; inhibition of fibrinolysis by plasmin [9]: inhibit only fibrinolysis by plasmin
CCOC(=O)c1ccc(OC(=O)CCCCCN=C(N)N)cc1.CS(=O)(=O)O [FOY]							have antiplamin activity	strongly inhibit	
aprotinin							have antiplamin activity	strongly inhibit	
Cc1ccc(S(=O)(=O)NCCCC[C@@H](NS(=O)(=O)c2ccc(C)cc2)C(=O)N[C@@H](Cc2ccccc2)C(=O)N[C@H](C=O)CCCCN)cc1 [Compound 5, N-α-N-ε-Di(p-tosyl)-D-lysyl-L-phenylalanyl-L-lysinal hydrochloride] (Tos-[dK](Tos)-Phe-Lys-aldehyde)	< 3.00	6.27	6.11	4.80	5.49	7.49			
CC(=O)N[C@H](CCCCNS(=O)(=O)c1ccc(C)cc1)C(=O)N[C@@H](Cc1ccccc1)C(=O)N[C@H](C=O)CCCCN [Compound 3, N-α-Acetyl-N-ε-(p-tosyl)-D-lysyl-L-phenylalanyl-L-lysinal hydrochloride] (Ac-[dK](Tos)-Phe-Lys-aldehyde)	< 3.00	5.31	6.43	3.70	4.57	6.18			
CC(=O)N[C@@H](CC(C)C)C(=O)N[C@@H](CC(C)C)C(=O)N[C@H](C=O)CCCNC(=N)N [Compound A4, AcLeuLeuArgH.1/2H2 SO4.H2 O (leupeptin), reference compound]									pIC50 ([1]; Table 3): 3.23; pIC50 ([2]; Table 3): 3.89; pIC50 ([3]; Table 3): 5.26; pIC50 ([4]; Table 3): 4.85; pIC50 ([5]; Table 3): 6.11; pIC50 ([6]; Table 3): 4.70
Cc1ccc(S(=O)(=O)NCCCC[C@@H](N)C(=O)N[C@@H](Cc2ccccc2)C(=O)N[C@H](C=O)CCCCN)cc1 [Compound 7, N-ε-(p-Tosyl)-D-lysyl-L-phenylalanyl-L-lysinal dihydrochloride] (H-[dK](Tos)-Phe-Lys-aldehyde)	< 3.00	6.02	6.57	3.80	4.74	6.77			
